These are literature values, as cited in patent US9096579B2, “Amino-indolyl-substituted imidazolyl-pyrimidines and their use as medicaments” (Boehringer Ingelheim International GmbH, priority 2012, dated 2015).

The test system of data set [1] is platelet counts in patients with ITP. To be noted: single center open label study.
Data set [2] deals with atherosclerotic plaque size. The settings on record: murine model of atherosclerosis.

Take `COc1cc(Nc2ncc(F)c(Nc3ccc4c(n3)N(COP(=O)(O)O)C(=O)C(C)(C)O4)n2)cc(OC)c1OC` [R788 (R406)]: in data set [1], the platelet counts entry is given as “improved platelet counts”. In data set [2], the atherosclerotic plaque size entry was “reduced atherosclerotic plaque size”.
